*1 amine or outer side, *2 acyl side, *3 side chain or, on linkers, in order; H or OH if unused. Where a SMILES comes first, the peptide text is derived from it. Bridges are numbered along the chain shown (N, C = ends). Roman numbers before positions name the chains, in order. [ ]: non-standard residue; d: D form. Actinocin(9to1) = Cc1c2oc3c(C)ccc(C(=O)[*:1])c3nc-2c(C(=O)[*:2])c(N)c1=O; NMeV = CN[C@H](C(=O)O)C(C)C; Sar = CNCC(=O)O
Tests used:
HeLa cell [1] = experiment: Cytotoxicity on human cultured cancer cells, relative survival rate (Evaluation 7); type: cell-based; settings: control
Description: HeLa cells were cultured in a 96-well plate using Dulbecco's Modified Eagle's Medium (DHEM) under the culture conditions of 5% carbon dioxide and at 37° C. The compound (8b) (final concentration 50 μM), the compound (8f) (final concentration 50 μM), DMSO (final concentration 0.25%), Actinomycin D (final concentration 5 μg/ml) or Nocodazole (final concentration 100 ng/ml) was added 0 (48-hr compound treated sample), 12 (36-hr compound treated sample), 24 (24-hr compound treated sample), 36 (12-hr compound treated sample), and 48 (0-hr compound treated sample) hours after the culture was started. All of the samples were measured for living cell counts 48 hours after the culture was started with a cell counting kit (DOJINDO LABORATORIES), and a measured value of each-time compound treated-sample was divided by the measured value of 0-time compound treated sample to calculate a relative survival rate.
In addition, a transcription inhibitor Actinomycin D and a tubulin polymerization inhibitor Nocodazole were used as controls of the compounds which had cytotoxicity (induces apoptosis). DMSO is a solvent in which the compound (8b) or the compound (8f) was dissolved, and used as a control to observe the affect of the solvent on the cells.

thale cress = experiment: Activities on plants: growth of thale cress on agar medium (Evaluation 1, 6); type: in vivo, thale cress (Col-0, wild-type strain); settings: thale cress Col-0, agar medium, 7 days, scanned images
Description: The test compound (compound (6a)) and DMSO for a control experiment, were added at this stage and blended. Fifty ml each of the medium was dispensed in sterile No. 2 square petri dishes (Eiken Chemical Co., Ltd.) to prepare agar medium. As a plant material, Col-0, which is a wild-type strain of […] used. Seeds, after their surfaces were sterilized, were planted on the agar medium, and vernalized at 4° C. for 16 hours. Growth of the plant was carried out in a growth chamber (SANYO MLR-351) under the conditions of an illuminance of 3 at 23° C. with constant light. The agar medium was allowed to stand upright in the chamber to grow the plant for 7 days. Lids of the petri dishes used for the test were opened, the test results were recorded with a scanner, and with the scanned images, […]

[2] = test system: Schizosaccharomyces pombe (wild-type strain 972); experiment: Growth inhibiting activity on Schizosaccharomyces pombe (Evaluation 3); type: cell-based; settings: final concentration 100 μM, up to 30 hours
Description: The compound (6a) or the compound (7) (final concentration 100 μM) or 50% ethanol (final concentration 0.5%) was added to YE medium in which Schizosaccharomyces pombe (wild-type strain 972) was inoculated to carry out shaking culture at 30° C. Six, 12, 18, 24, and 30 hours after the culture was started, turbidity (OD600) of the culture medium was measured with a spectrophotometer to analyze the affect of the compound (6a) or the compound (7), or 50% ethanol on the growth of the Schizosaccharomyces pombe cells.

HeLa cell [3] = experiment: Cell proliferation inhibiting activity on human cultured cancer cells (Evaluation 2); type: cell-based; settings: final concentration 200 μM, 32 hours
Description: Every 8 hours after the culture was started, living cell counts were measured with a cell counting kit (DOJINDO LABORATORIES). In addition, staurosporine was used as a control of the compound which inhibits the cell proliferation.

E. coli (DH5a strain) = experiment: E. coli growth inhibiting activity (Evaluation 5); type: cell-based; settings: final concentration 10 μM or 100 μM, up to 6 hours
Description: The compound (6a) or the compound (7) (final concentration 10 μM or 100 μM), 50% ethanol (final concentration 0.05% or 0.5%), or ampicillin (final concentration 50 μg/ml) was added to LB medium in which E. coli (DH5a strain) was added to carry out shaking culture at 37° C. One, 2, 4, and 6 hours after the culture was started, turbidity (OD600) of the culture medium was measured with a spectrophotometer to analyze the affect of the compound (6a) or the compound (7), 50% ethanol, ampicillin on the growth of E. coli cells.
In addition, ampicillin was used as a control of the compound which inhibits the growth.

[4] = test system: Saccharomyces cerevisiae (BY4741 strain); experiment: Growth inhibiting activity on Saccharomyces cerevisiae (Evaluation 4); type: cell-based; settings: final concentration 10 μM or 100 μM, up to 24 hours
Description: The compound (6a) or the compound (7) (final concentration 10 μM or 100 μM), or 50% ethanol (final concentration 0.05% or 0.5%) was added to YPD medium in which Saccharomyces cerevisiae (BY4741 strain) was inoculated to carry out shaking culture at 30° C. Four, 8, 16, and 24 hours after the culture was started, turbidity (OD600) of the culture medium was measured with a spectrophotometer to analyze the affect of the compound (6a) or the compound (7), or 50% ethanol on the growth of the […] cells.

Cc1c2oc3c(C)ccc(C(=O)N[C@@H]4C(=O)N[C@H](C(C)C)C(=O)N5CCC[C@H]5C(=O)N(C)CC(=O)N(C)[C@@H](C(C)C)C(=O)O[C@@H]4C)c3nc-2c(C(=O)N[C@@H]2C(=O)N[C@H](C(C)C)C(=O)N3CCC[C@H]3C(=O)N(C)CC(=O)N(C)[C@@H](C(C)C)C(=O)O[C@@H]2C)c(N)c1=O [Actinomycin D] (I: T[dV]P[Sar][NMeV] / II: T[dV]P[Sar][NMeV]; ester I:1-I:C, II:1-II:C; linker I:N-II:N via Actinocin(9to1))
viability of HeLa cells (relative survival rate) (HeLa cell [1]; final concentration 5 μg/ml): induced apoptosis

COn1cccc1C(N)=O [Compound 7, 1-Methoxy-1H-pyrrole-2-carboxamide]
twisting of root epidermal cells / abnormality in direction of root growth (thale cress): epidermal cells of the roots were twisted leftward and abnormality in a direction of the root growth was observed | growth of Schizosaccharomyces pombe (OD600) [2]: neither the compound (6a) nor the compound (7) inhibits the growth | effect on growth rate of HeLa cells (living cell counts) (HeLa cell [3]): no affect at all | E. coli growth (OD600) (E. coli (DH5a strain)): neither the compound (6a) nor the compound (7) inhibits the E. coli growth | growth of Saccharomyces cerevisiae (OD600) [4]: neither the compound (6a) nor the compound (7) inhibits the growth

COC(=O)Nc1nc2ccc(C(=O)c3cccs3)cc2[nH]1 [Nocodazole]
viability of HeLa cells (relative survival rate) (HeLa cell [1]; final concentration 100 ng/ml): induced apoptosis

From patent publication US11685716B2, “Plant growth inhibiting agent, and plant growth inhibiting method using same” (NATIONAL UNIVERSITY CORPORATION KUMAMOTO UNIVERSITY, priority 2017, dated 2023)
